Source: patent publication US9457057B2, “Methods for the prevention and treatment of burn injuries and secondary complications” (The General Hospital Corporation, priority 2009, dated 2016)

Key:
[1] = test system: redox state of the gastrocnemius muscle; assay: Redox state of gastrocnemius muscle by nitroxide EPR after local burn (Examples 4 and 8); assay type: in vivo, mouse; details: mice
Method: A clinically relevant murine nonlethal local burn injury model was used to address whether aromatic-cationic peptides can prevent/attenuate the adverse effects of burn injury on mitochondrial dysfunction and ER stress. The redox state of the gastrocnemius muscle immediately below a local cutaneous burn (90° for 3 sec) was evaluated by nitroxide EPR.
Next, the effect of SS-31 peptide treatment administered IP 30 min before burn, and immediately after burn (3 mg/kg each dose) was tested.
(§1) Materials and Methods. Male 6-week-old CD1 mice weighing 20-25 g were anesthetized by intraperitoneal (i.p.) injection of 40 mg/kg pentobarbital sodium. The left hind limb of all mice in all groups was shaved. Each burned mouse was subjected to a nonlethal scald injury of 3-5% total body surface area (TBSA) by immersing its left hind limb in 90° C. water for 3 sec.
EPR spectroscopy is described in detail in Khan et al. “Burn Trauma in skeletal muscle results in oxidative stress as assessed by in vivo electron paramagnetic resonance.” Mol Med Reports 1: 813-819 (2008). Briefly, mice were randomized into burn, burn+SS-31 peptide and control groups. The SS-31 peptide (3 mg/kg) was injected intraperitoneally at 0, 3, 6, 24, and 48 hours post-burn. EPR measurements were carried out with a 1.2-GHz EPR spectrometer equipped with a microwave bridge and external loop resonator specially designed for in vive experiments. The optimal spectrometer parameters were: incident microwave power, 10 mW; magnetic field center, 400 gauss; modulation frequency, 27 kHz. The decay kinetics of intravenously-injected nitroxide (150 mg/kg) were measured at the various time points, which indicated the mitochondrial redox status of the muscle.

[2] = test system: ATP synthesis rate (reaction PCr → γATP) in hindlimb skeletal muscle; assay: In vivo 31P-NMR saturation transfer, ATP synthesis rate (reaction PCr→γATP), mouse burn model (Example 8)
Method: as §1
(§2) NMR spectroscopy is described in detail in Padfield, et al., Proc Natl Acad Sci USA 102: 5368-5373 (2005). Briefly, mice were randomized into burn, burn+SS-31 peptide, control, and control+peptide groups. The SS-31 peptide (3 mg/kg) was injected intraperitoneally at 30 min prior to burn and a second injection immediately after the burn. NMR experiments were performed in a horizontal bore magnet (proton frequency 400 MHz, 21 cm diameter, Magnex Scientific) using a Bruker Avance console. A 90° pulse was optimized for detection of phosphorus spectra (repetition time 2 s, 400 averages, 4K data points). Saturation 90°-selective pulse trains (duration 36.534 ms, bandwidth 75 Hz) followed by crushing gradients were used to saturate the γ-ATP peak. The same saturation pulse train was also applied downfield of the inorganic phosphate (Pi) resonance, symmetrically to the γ-ATP resonance. T1 relaxation times of Pi and phosphocreatine (PCr) were measured using an inversion recovery pulse sequence in the presence of γ-ATP saturation. An adiabatic pulse (400 scans, sweep with 10 KHz, 4K data) was used to invert Pi and PCr, with an inversion time between 152 ms and 7651 ms.

[3] = test system: protein oxidation; assay: Liver protein oxidation by western blot (Example 2); assay type: in vivo, mouse; details: C57BL mice, 30% TBSA burn, 5 mg/kg daily
Text: FIG. 7 is a photograph of a western blot analysis showing protein oxidation from the various treatment groups of Example 2.
(§3) Systemic inflammatory response syndrome (SIRS) and multiple organ failure (MOF) are leading causes of morbidity and mortality in severe burn patients. In this Example, the effects of the aromatic-cationic peptides of the invention on liver damage in a mouse model of burn injury were examined. Six to eight week old male C57BL mice were subjected to 30% total body surface area (TBSA) burn injury and subsequently injected daily with saline or SS-31 peptide (5 mg/kg body weight). A weight- and time-matched sham-burn group subjected to lukewarm (˜37° C.) water but otherwise treated exactly the same served as controls (FIG. 3). The liver tissues were collected 1, 3, and 7 days after burn injury treatment and used to examine apoptosis by TUNEL method, activated caspase protein levels by Western blots, and caspase activity by an enzymatic reaction assay.

[4] = test system: Sprague Dawley rats; assay: Indirect calorimetry after burn injury in a rat model (Example 1); assay type: in vivo; details: 30% TBSA full thickness burn, SS-31 2 mg/kg IV q12h for three days, n = 3
Method: Sprague Dawley rats were randomized into three groups; sham-burn (SB), burn with saline treatment (B) and burn with peptide treatment (BP). Catheters were surgically placed into jugular vein and carotid artery. B and BP animals received 30% total body surface area full thickness burns by immersing the dorsal part into 100° C. water for 12 seconds with immediate fluid resuscitation. BP animals received IV injection of SS-31 (2 mg/kg every 12 h) for three days (FIG. 1). The EE of the animals were constantly monitored for 12 hours in a TSE Indirect Calorimetry System (TSE Co. Germany).

[5] = test system: Sprague-Dawley rats; assay: Wound contraction after burn injury, area of the scab (Example 3); assay type: in vivo, rat; details: 65° C. water 25 sec, 1 mg IP one hour prior to burn, 1 mg topical, 1 mg IP every 12 h for 72 h, time points ≧8 days post-burn, p=0.06 by ANOVA
Method: Sprague-Dawley rats (male, 300-350 g) were pre-treated with 1 mg SS-31 peptide administered IP (this corresponds to about 3 mg/kg) one hour prior to burn (65° C. water for 25 sec on the lower back), followed by topical treatment (1 mg on top of the wound), and 1 mg SS-31 peptide administered IP every 12 h for 72 h. Wounds were observed up to ˜3 weeks post-burn. In general, the wounds took the appearance of a hard scab, and for the purpose of this experiment, the area of the scab was quantified as a measure of wound size. […] Treatment with SS-31 slowed the wound contraction, which indicates the burn injury was less severe compared to burns in animals without the peptide treatment. As such, the aromatic-cationic peptides of the invention are useful in methods of treating wounds associated with a burn injury.

[6] = test system: mitochondrial aconitase; assay: Mitochondrial aconitase activity in 5% TBSA mice burn model (Example 9); assay type: in vivo, mouse; details: burned animals
Text: Mitochondrial aconitase is part of the TCA cycle and its activity has been directly correlated with the TCA flux. Moreover, its activity is inhibited by ROS and thus it is considered as an index of oxidative stress. Here we present the local and systematic effects of burn on the mitochondrial aconitase activity using a 5% TBSA mice burn model. The effects of a mitochondrial peptide (SS-31) had been also examined.

[7] = test system: Sprague Dawley rats; assay: Indirect calorimetry 6 days after burn injury, 7-day infusion (Example 7); assay type: in vivo, rat; details: III degree 30% TBSA burns, 2 mg/kg priming then 4 mg/kg/day infused 7 days
Method: (§4) Methods. Sprague Dawley rats were randomly divided into 5 groups; sham (S), sham with saline treatment (SSal), sham with SS-31 treatment (SPep), burn with saline treatment (BSal) and burn with SS-31 treatment (BPep). In burn group, the back of animal was immersed into 100° C. water for 12 seconds to produce III degree 30% TBSA burns under general anesthesia. Sham burn was produced by immersing the lukewarm water in the same manner. Both groups of animals received 40 ml/kg intraperitoneal saline injection for the resuscitation following the injury. A venous catheter was placed surgically into the right jugular vein subsequent to sham or burn injury. SS-31 (2 mg/kg) or saline was injected as priming, and infused for 7 days (4 mg/kg/day) using osmotic pump (Durect, CA). […] The indirect calorimetry was performed for 24 hours at 6 days after burn injury in a TSE Indirect Calorimetry System (TSE Co. Germany), and VO2, VCO2 and energy expenditure were recorded every six minutes. Interscapullar brown adipose tissue was collected after the indirect calorimetry, and UCP-1 expression in the brown adipose tissue was evaluated by Western blot.

[8] = test system: ATP synthesis rate (Pi→γATP) in hindlimb skeletal muscle; assay: In vivo 31P-NMR saturation transfer, ATP synthesis rate (Pi→γATP), mouse burn model (Examples 8 and 10)
Method: as §1
as §2, with “An adiabatic pulse (400 scans, sweep with 10 KHz, 4K data) was used to invert Pi and PCr, with an inversion time between 152 ms and 7651 ms.” left out
Values are means±SE; ΔM/M0 is the fractional change in Pi magnetization as a result of saturation transfer; T1obs is the observed spin lattice relaxation time of Pi during γATP saturation in seconds; ATP synthesis is calculated as [Pi]×k; [Pi] is the concentration of Pi extrapolated from the baseline NMR spectrum, comparing Pi and γATP peaks and ATP concentration measured with bioluminescence assay; k is calculated as (1/T1obs)×(ΔM/M0); P-values (unpaired Student's t-test) are for comparisons between experimental and control groups; * indicates only one dose of SS-31 peptide (3 mg/kg) was injected to animals immediately after burn.

[9] = test system: apoptosis in the liver; assay: Liver apoptosis by TUNEL method after burn injury (Example 2); assay type: in vivo, mouse; details: C57BL mice, 30% TBSA burn, 5 mg/kg daily; days 1, 3, 7, effects most obvious on day 7 post-burn
Method: as §3

[10] = test system: caspase-3; assay: Activated caspase protein levels in liver by Western blots (Example 2); assay type: in vivo, mouse; details: C57BL mice, 30% TBSA burn, 5 mg/kg daily; day 3 and 7 post-burn
Method: as §3

[11] = test system: UCP-1; assay: UCP-1 expression in brown adipose tissue by Western blot (Example 7); assay type: in vivo, rat; details: rats, III degree 30% TBSA burns; 2 mg/kg priming then 4 mg/kg/day infused 7 days; p=0.057
Method: as §4

[12] = test system: caspase-3; assay: Liver caspase activity by an enzymatic reaction assay (Example 2); assay type: in vivo, mouse; details: C57BL mice, 30% TBSA burn, 5 mg/kg daily
Text: FIG. 6 is a graph showing caspase-3 activity from the various treatment groups of Example 2.
as §3

[13] = 3-5% TBSA burn, 3 mg/kg IP, 6 h after burn, p<0.05, 3 mg/kg
[14] = Controls + Peptide (n = 5), unburned CD1 mice, 3 mg/kg IP two injections

## D-Arg-2′,6′-dimethyltyrosine-Lys-Phe-NH2 [SS-31]
[1]; [13]
  redox status of burn+peptide group as compared to burn (EPR): significant increase (recovery) in the redox status
  redox status of burn+peptide group as compared to control (EPR): significant decrease in the redox status
[1]; local burn, 3 mg/kg IP 30 min before burn and immediately after burn, 6 h timepoint
  rate of nitroxide reduction in gastrocnemius muscle: significantly increased the rate of nitroxide reduction
[2]; Burn + Peptide (n = 8), 3 mg/kg IP 30 min prior to burn and immediately after the burn
  PCr: 3.25 ± 0.29 µmol/g
[2]; [14]
  ATP synthesis rate (reaction PCr → γATP): 0.50 ± 0.06 µmol/g/s
  PCr: 3.76 ± 0.51 µmol/g
[3]
  protein oxidation following burn injury: decreased protein oxidation
[4]
  RER: 0.669 ± 0.005
[5]
  rate of wound contraction (area of the scab): slower rate of wound contraction
[6]
  mitochondrial aconitase activity: decreased mitochondrial aconitase activity up to the control levels
[7]; p<0.01
  VO2, BPep group compared to BSal group: significantly attenuated
[7]; p<0.05
  VCO2, BPep group compared to BSal group: significantly attenuated
  energy expenditure, BPep group compared to BSal group: significantly attenuated
[8]; Burn + Peptide (n = 8), 3 mg/kg IP 30 min before burn and immediately after burn, 6 hours after burn
  Pi: 2.93 ± 0.56 µmol/g
[8]; Burn + Peptide* (n = 8), only one dose 3 mg/kg immediately after burn
  Pi: 1.41 ± 0.26 µmol/g
[8]; [14]
  Pi: 5.49 ± 0.28 µmol/g
[9]
  number of liver cells undergoing apoptosis (TUNEL): minimized the number of cells undergoing apoptosis
[10]
  activated form of caspase-3 protein levels in liver: reversed the increase in the activated form of caspase-3 protein levels on day 3 and 7 post-burn to the levels similar to those of sham control animals
[11]
  UCP-1 expression in brown adipose tissue, decrease in BPep group compared to BSal group: 32%
[12]; day 3
  caspase activity in liver: trend for the increased caspase activity following burn injury to reverse
[12]; post-burn day 7
  caspase activity in liver: reduced the caspase activity to a level that was statistically not different from that of sham control group
